For 34 compounds, IC50 results are on record in patent publication US10752640B2, “Compounds active towards bromodomains” (NUEVOLUTION A/S, priority 2014, dated 2020).

As usually defined, the IC50 is the midpoint of a concentration-inhibition curve. Low readings indicate higher potency, high ones lower potency.

The assay has as its target BRD4 protein (Homo sapiens, UniProt O60885). As to the kind of experiment: FRET assay, half maximal inhibitory concentration (IC50). Conditions: BRD4 protein 50 nM, Biotin-H4KAc4 peptide 12.5 nM; A Further List of Classification. Format: binding. In short, it runs like this: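 Acetylated histone H4 peptide binding (biotin-H4KAc4, 12.5 nM final) to BRD4 (50 nM final) detected by TR-FRET between streptavidin cryptate (2.4 nM) and GST-XL665 antibody (10 nM) in KF/BSA. Buffer: HEPES pH 7.5, NaCl, CHAPS. Compound dilutions from 50 μM in 12.5% DMSO were preincubated with protein for 30 min. Variable-slope IC50.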
Regarding `Cc1cc(O)nc2ccc(NC(=O)c3cc(S(=O)(=O)N(C)C)ccc3N3CCCC3)cc12` [S27, 5-(dimethylsulfamoyl)-N-(2-hydroxy-4-methyl-6-quinolyl)-2-pyrrolidin-1-yl-benzamide], the IC50 was less than 200 nM. The value for `Cc1cc(O)nc2ccc(NC(=O)c3cc(N4CCOCC4)ccc3NS(C)(=O)=O)cc12` [S28, N-(2-hydroxy-4-methyl-6-quinolyl)-2-(methanesulfonamido)-5-morpholino-benzamide] was 200 to 500 nM. `Cc1cc(O)nc2ccc(NC(=O)c3cccc(N4CCCC4)c3)cc12` [S29, N-(2-hydroxy-4-methyl-6-quinolyl)-3-pyrrolidin-1-yl-benzamide, reference compound] yielded an IC50 of more than 10000 nM. As for `Cc1cc(O)nc2ccc(NC(=O)c3ccc(N)c([N+](=O)[O-])c3)cc12` [S30, 4-amino-N-(2-hydroxy-4-methyl-6-quinolyl)-3-nitro-benzamide, reference compound], the concentration for half-maximal inhibition (IC50) was more than 10000 nM.

`NS(=O)(=O)c1ccc(N2CCOCC2)c(C(=O)Nc2ccc3[nH]c(=O)cc(C(F)(F)F)c3c2)c1` [S32, 2-morpholino-N-[2-oxo-4-(trifluoromethyl)-1H-quinolin-6-yl]-5-sulfamoyl-benzamide] displayed a half-maximal inhibitory concentration (IC50) of 1000 to 10000 nM. The value for `Cc1cc(O)nc2ccc(NC(=O)c3cc(S(=O)(=O)N(C)C)ccc3F)cc12` [S33, 5-(dimethylsulfamoyl)-2-fluoro-N-(2-hydroxy-4-methyl-6-quinolyl)benzamide] was more than 10000 nM; that for `Cc1cc(O)nc2ccc(NC(=O)c3cc(S(=O)(=O)N4CCOCC4)ccc3Br)cc12` [S34, 2-bromo-N-(2-hydroxy-4-methyl-6-quinolyl)-5-morpholinosulfonyl-benzamide] was more than 10000 nM; that for `O=C(Nc1ccc2[nH]c(=O)cc(O)c2c1)c1cc(S(=O)(=O)N2CCOCC2)ccc1N1CCOCC1` [S35, N-(4-hydroxy-2-oxo-1H-quinolin-6-yl)-2-morpholino-5-morpholinosulfonyl-benzamide] was less than 200 nM. For the compound `Cc1cc(O)nc2ccc(NC(=O)c3cccc(S(=O)(=O)N4CCN(C)CC4)c3)cc12` [S36, N-(2-hydroxy-4-methyl-6-quinolyl)-3-(4-methylpiperazin-1-yl)sulfonyl-benzamide], the IC50 was more than 10000 nM. `CN(C)S(=O)(=O)c1ccc(N2CCOCC2)c(C(=O)Nc2ccc3[nH]c(=O)[nH]c(=O)c3c2)c1` [S37, 5-(dimethylsulfamoyl)-N-(2,4-dioxo-1H-quinazolin-6-yl)-2-morpholino-benzamide] displayed an IC50 of more than 10000 nM.

In turn, `CN1Cc2cc(NC(=O)c3cc(S(=O)(=O)N(C)C)ccc3N3CCOCC3)ccc2NC1=O` [S39, 5-(dimethylsulfamoyl)-N-(3-methyl-2-oxo-1,4-dihydroquinazolin-6-yl)-2-morpholino-benzamide] gave a half-inhibitory concentration (IC50) of less than 200 nM. For `Cc1cc(O)nc2ccc(NC(=O)c3cc(S(=O)(=O)N(C)C)ccc3N3CCC(C)C3)cc12` (stereo not shown) [S41, 5-(dimethylsulfamoyl)-N-(2-hydroxy-4-methyl-6-quinolyl)-2-(3-methylpyrrolidin-1-yl)benzamide], the IC50 is 500 to 1000 nM. `Cc1cc(O)nc2ccc(NC(=O)c3cc(S(=O)(=O)N(C)C)ccc3N3CCC(F)C3)cc12` (stereo not shown) [S42, 5-(dimethylsulfamoyl)-2-(3-fluoropyrrolidin-1-yl)-N-(2-hydroxy-4-methyl-6-quinolyl)benzamide] yielded a half-inhibitory concentration (IC50) of less than 200 nM. On to `COC1CCN(c2ccc(S(=O)(=O)N(C)C)cc2C(=O)Nc2ccc3nc(O)cc(C)c3c2)C1` (stereo not shown) [S43, 5-(dimethylsulfamoyl)-N-(2-hydroxy-4-methyl-6-quinolyl)-2-(3-methoxypyrrolidin-1-yl)benzamide], for which the half-inhibitory concentration (IC50) was in the range of 500 to 1000 nM. In the case of `Cc1cc(O)nc2ccc(NC(=O)c3cc(S(=O)(=O)N(C)C)ccc3N3CCC(C(N)=O)C3)cc12` (stereo not shown) [S44, 1-[4-(dimethylsulfamoyl)-2-[(2-hydroxy-4-methyl-6-quinolyl)carbamoyl]phenyl]pyrrolidine-3-carboxamide], the concentration for half-maximal inhibition (IC50) is less than 200 nM.

As for `Cc1cc(O)nc2ccc(NC(=O)c3cc(S(=O)(=O)N(C)C)ccc3N3CCC(N(C)C)C3)cc12` (stereo not shown) [S45, 2-[3-(dimethylamino)pyrrolidin-1-yl]-5-(dimethylsulfamoyl)-N-(2-hydroxy-4-methyl-6-quinolyl)benzamide], the concentration for half-maximal inhibition (IC50) lay within 500 to 1000 nM. For `Cc1cc(O)nc2ccc(NC(=O)c3cc(S(=O)(=O)N(C)C)ccc3N3CCC(CC(C)C)C3)cc12` (stereo not shown) [S46, 5-(dimethylsulfamoyl)-N-(2-hydroxy-4-methyl-6-quinolyl)-2-(3-isobutylpyrrolidin-1-yl)benzamide], the IC50 was in the range of 500 to 1000 nM. On to `Cc1cc(O)nc2ccc(NC(=O)c3cc(S(=O)(=O)N(C)C)ccc3N3CCC(CN(C)C)C3)cc12` (stereo not shown) [S47, 2-[3-(dimethylaminomethyl)pyrrolidin-1-yl]-5-(dimethylsulfamoyl)-N-(2-hydroxy-4-methyl-6-quinolyl)benzamide], for which the IC50 was less than 200 nM. The figure for `Cc1cc(O)nc2ccc(NC(=O)c3cc(S(=O)(=O)N(C)C)ccc3N3CCC(NC(N)=O)C3)cc12` (stereo not shown) [S48, 5-(dimethylsulfamoyl)-N-(2-hydroxy-4-methyl-6-quinolyl)-2-(3-ureidopyrrolidin-1-yl)benzamide] is less than 200 nM. `Cc1cc(O)nc2ccc(NC(=O)c3cc(S(=O)(=O)N(C)C)ccc3N3CCC(N4CCCC4)C3)cc12` (stereo not shown) [S49, 5-(dimethylsulfamoyl)-N-(2-hydroxy-4-methyl-6-quinolyl)-2-(3-pyrrolidin-1-ylpyrrolidin-1-yl)benzamide] returned an IC50 of 500 to 1000 nM. The value for `Cc1cc(O)nc2ccc(NC(=O)c3cc(S(=O)(=O)N(C)C)ccc3N3CCC(OCC(N)=O)C3)cc12` (stereo not shown) [S50, 2-[3-(2-amino-2-oxo-ethoxy)pyrrolidin-1-yl]-5-(dimethylsulfamoyl)-N-(2-hydroxy-4-methyl-6-quinolyl)benzamide] was 500 to 1000 nM.

The compound `Cc1cc(O)nc2ccc(NC(=O)c3cc(S(=O)(=O)N(C)C)ccc3N3CCC(c4ccccc4)C3)cc12` (stereo not shown) [S51, 5-(dimethylsulfamoyl)-N-(2-hydroxy-4-methyl-6-quinolyl)-2-(3-phenylpyrrolidin-1-yl)benzamide] returned an IC50 of less than 200 nM.

`Cc1cc(O)nc2ccc(NC(=O)c3cc(S(=O)(=O)N(C)C)ccc3N3CCCC3C)cc12` (stereo not shown) [S52, 5-(dimethylsulfamoyl)-N-(2-hydroxy-4-methyl-6-quinolyl)-2-(2-methylpyrrolidin-1-yl)benzamide] came in with a concentration for half-maximal inhibition (IC50) of 500 to 1000 nM. For the compound `COCC1CCCN1c1ccc(S(=O)(=O)N(C)C)cc1C(=O)Nc1ccc2nc(O)cc(C)c2c1` (stereo not shown) [S53, 5-(dimethylsulfamoyl)-N-(2-hydroxy-4-methyl-6-quinolyl)-2-[2-(methoxymethyl)pyrrolidin-1-yl]benzamide], the half-inhibitory concentration (IC50) is less than 200 nM. As for `Cc1cc(O)nc2ccc(NC(=O)c3cc(S(=O)(=O)N(C)C)ccc3N3CCC4CN(C)CC43)cc12` (stereo not shown) [S54, 5-(dimethylsulfamoyl)-N-(2-hydroxy-4-methyl-6-quinolyl)-2-(5-methyl-2,3,3a,4,6,6a-hexahydropyrrolo[3,4-b]pyrrol-1-yl)benzamide], the 50% inhibitory concentration (IC50) fell in the range of 1000 to 10000 nM. Take `Cc1cc(O)nc2ccc(NC(=O)c3cc(S(=O)(=O)N(C)C)ccc3N3CCCC3CC(C)C)cc12` (stereo not shown) [S55, 5-(dimethylsulfamoyl)-N-(2-hydroxy-4-methyl-6-quinolyl)-2-(2-isobutylpyrrolidin-1-yl)benzamide]: the IC50 fell in the range of 200 to 500 nM. On to `Cc1cc(O)nc2ccc(NC(=O)c3cc(S(=O)(=O)N(C)C)ccc3N3CCCC3CN(C)C)cc12` (stereo not shown) [S56, 2-[2-(dimethylaminomethyl)pyrrolidin-1-yl]-5-(dimethylsulfamoyl)-N-(2-hydroxy-4-methyl-6-quinolyl)benzamide], for which the IC50 is less than 200 nM. Compound `Cc1cc(O)nc2ccc(NC(=O)c3cc(S(=O)(=O)N(C)C)ccc3N3CCCC3C(C)(C)O)cc12` (stereo not shown) [S57, 5-(dimethylsulfamoyl)-2-[2-(1-hydroxy-1-methyl-ethyl)pyrrolidin-1-yl]-N-(2-hydroxy-4-methyl-6-quinolyl)benzamide] gave a concentration for half-maximal inhibition (IC50) of 1000 to 10000 nM.

With `Cc1cc(O)nc2ccc(NC(=O)c3cc(S(=O)(=O)N(C)C)ccc3N3CCCC3c3cc[nH]n3)cc12` (stereo not shown) [S59, 5-(dimethylsulfamoyl)-N-(2-hydroxy-4-methyl-6-quinolyl)-2-[2-(1H-pyrazol-3-yl)pyrrolidin-1-yl]benzamide], the IC50 is less than 200 nM. In the case of `Cc1cc(O)nc2ccc(NC(=O)c3cc(S(=O)(=O)N(C)C)ccc3N3CCCC3c3nnn[nH]3)cc12` (stereo not shown) [S60, 5-(dimethylsulfamoyl)-N-(2-hydroxy-4-methyl-6-quinolyl)-2-[2-(1H-tetrazol-5-yl)pyrrolidin-1-yl]benzamide], the IC50 was less than 200 nM. Turning to `Cc1cc(O)nc2ccc(NC(=O)c3cc(S(=O)(=O)N(C)C)ccc3N3CCC4C3CCCN4C)cc12` (stereo not shown) [S61, 5-(dimethylsulfamoyl)-N-(2-hydroxy-4-methyl-6-quinolyl)-2-(4-methyl-3,3a,5,6,7,7a-hexahydro-2H-pyrrolo[3,2-b]pyridin-1-yl)benzamide], the half-maximal inhibitory concentration (IC50) lay in the range of 500 to 1000 nM. The figure for `Cc1cc(O)nc2ccc(NC(=O)c3cc(S(=O)(=O)N(C)C)ccc3N3CCCC3C(=O)N(C)C)cc12` (stereo not shown) [S62, 1-[4-(dimethylsulfamoyl)-2-[(2-hydroxy-4-methyl-6-quinolyl)carbamoyl]phenyl]-N,N-dimethyl-pyrrolidine-2-carboxamide] is less than 200 nM; for `Cc1cc(O)nc2ccc(NC(=O)c3cc(S(=O)(=O)N(C)C)ccc3N3C4CCC3CC(C)(O)C4)cc12` (stereo not shown) [S65, 5-(dimethylsulfamoyl)-2-(3-hydroxy-3-methyl-8-azabicyclo[3.2.1]octan-8-yl)-N-(2-hydroxy-4-methyl-6-quinolyl)benzamide] it is 500 to 1000 nM. `Cc1cc(O)nc2ccc(NC(=O)c3cc(S(=O)(=O)N(C)C)ccc3N3CC(C)C(O)CC3C)cc12` (stereo not shown) [S66, 5-(dimethylsulfamoyl)-2-(4-hydroxy-2,5-dimethyl-1-piperidyl)-N-(2-hydroxy-4-methyl-6-quinolyl)benzamide] returned an IC50 of 500 to 1000 nM.
